Patent US20250129055A1, “GLUCOSIDE DERIVATIVE, AND PREPARATION METHOD THEREFOR AND APPLICATION THEREOF” (BEIJING INCREASE INNOVATIVE DRUG CO., LTD., priority 2020, published 2025)

Columns and labels:
normal ICR mice = assay: Blood glucose level of normal mice after oral administration of glucose; type: in vivo
Procedure: Test Example 2 Evaluation of the in vivo activity of the compounds of the present invention: the effect on the blood glucose level of normal mice after oral administration of glucose
ICR mice (male, 18-20 g), purchased from Beijing Vital River Laboratories Co., Ltd., were fed adaptively for 4 days, and randomly divided into 4 groups, namely normal control group, positive control group, and two groups of test compounds, with 8 mice in each group.
The aforementioned stock solutions were diluted to appropriate concentrations with double distilled water.
The mice were fasted overnight. […] After 1 h, blood was collected at 0 min (fasting), and then mice in each group were administered with glucose (2.0 g/kg) solution by gavage. Blood was collected at 30 min, 60 min, and 120 min after glucose administration. The blood glucose level was measured using glucose oxidase-peroxidase method, and the area under the blood glucose curve was calculated.
The data were expressed as mean±SD. The comparison between multiple groups was performed by one-way analysis of variance, and the comparison between two groups was performed by Dunnett's t test. Statistical graphing was performed using Graphpad Prism software.

Alloxan diabetic mice = assay: Efficacy in Alloxan diabetes model mice; type: in vivo
Procedure: Test Example 3 Research on efficacy of the compounds of the present invention in in vivo anti-Alloxan diabetes model mice
Alloxan diabetes mice were used. Normal ICR mice (male, 22-24 g) were randomly divided into groups including normal group, model group (con), positive control group and test compound groups with four different doses (n=11), and the mice without injection of Alloxan were in a normal control group (n=10).
Mice were administered with drugs by gavage.
Single administration: Mice were fasted for 3 h, and then the fasting blood (0 min) was collected. Then the mice in each group were administered with drugs by gavage. After 1 h, they were administered with a glucose ([…]) solution. Blood was collected at 30 min, 60 min, 120 min, and 180 min after the glucose administration. The blood glucose level was measured using glucose oxidase-peroxidase method, and the area under the blood glucose curve was calculated.
On the 6th day of continuous administration, under the condition of no fasting, blood samples were collected from mice before administration (0 h), 1 h, 2 h, 4 h, 8 h and 24 h after administration to measure blood glucose.
On the 9th day of continuous administration, the mice were fasted for 1 h and then administered with drugs by gavage. An oral glucose tolerance test (OGTT) was performed 1 h after administration.
On the 16th day of continuous administration, under the condition of no fasting, urine samples were collected from mice 1 h after administration to measure the concentration of urine glucose.
On the 22nd day of continuous administration, the mice were fasted for 1 h and then administered with drugs by gavage, and blood samples were collected to measure the fasting blood glucose 1 h after administration.
On the 28th day of continuous administration, under the condition of no fasting, blood samples were collected from mice 1 h after administration to measure the random blood glucose.
On the 32nd day of continuous administration, under the condition of no fasting, blood samples were collected from mice to measure glycosylated hemoglobin (HbA1c).
The data were expressed as mean±SEM (n=10-11). The comparison between multiple groups was performed by one-way analysis of variance, and the comparison between two groups was performed by Dunnett's t test. Statistical graphing was performed using Graphpad Prism software.

SMILES: CCOc1ccc(Cc2cc([C@@H]3O[C@H](CO)[C@@H](O)[C@H](O)[C@H]3O)ccc2Cl)cc1 [Dapagliflozin, reference compound]
- Blood glucose 0 min (normal ICR mice; 2 mg/kg by gavage, 0 min (fasting, 1 h after dosing)): 71.8 ± 6.6 mg/dL
- Blood glucose 30 min (normal ICR mice; 2 mg/kg by gavage, 30 min after glucose 2.0 g/kg): 213.2 ± 26.6 mg/dL
- Blood glucose 60 min (normal ICR mice; 2 mg/kg by gavage, 60 min after glucose 2.0 g/kg): 122.2 ± 16.1 mg/dL
- Blood glucose 120 min (normal ICR mice; 2 mg/kg by gavage, 120 min after glucose 2.0 g/kg): 83.0 ± 13.5 mg/dL
- AUC of blood glucose (normal ICR mice; 2 mg/kg by gavage, oral glucose 2.0 g/kg): 257.7 ± 24.0 mg·h/dL
- Reduction of the area under the curve (AUC) of blood glucose (normal ICR mice; 2 mg/kg, vs. normal control group): 35.2%
- Concentration of fasting blood glucose, the 9th day (Alloxan diabetic mice; 2.0 mg/kg, 9th day): 256.7 ± 14.4 mg/dL
- Concentration of fasting blood glucose, the 22nd day (Alloxan diabetic mice; 2.0 mg/kg, 22nd day): 316.5 ± 18.6 mg/dL
- HbA1c (Alloxan diabetic mice; 2.0 mg/kg, 32nd day): 6.6 ± 0.5%
- AUC of blood glucose (Alloxan diabetic mice; 2.0 mg/kg, OGTT on the 9th day): 463.3 ± 28.0 mg·h/dL
- Concentration of blood glucose 0 min (Alloxan diabetic mice; 2.0 mg/kg, OGTT on the 9th day, 0 min): 256.7 ± 14.4 mg/dL
- Concentration of blood glucose 30 min (Alloxan diabetic mice; 2.0 mg/kg, OGTT on the 9th day, 30 min): 278.3 ± 17.6 mg/dL
- Concentration of blood glucose 60 min (Alloxan diabetic mice; 2.0 mg/kg, OGTT on the 9th day, 60 min): 227.3 ± 13.5 mg/dL
- Concentration of blood glucose 120 min (Alloxan diabetic mice; 2.0 mg/kg, OGTT on the 9th day, 120 min): 178.9 ± 20.8 mg/dL
- AUC of blood glucose (Alloxan diabetic mice; 2.0 mg/kg, non-fasting, 6th day, 0-24 h): 13216 ± 440.8 mg·h/dL
- Concentration of blood glucose 1 h (Alloxan diabetic mice; 2.0 mg/kg, non-fasting, 6th day, 1 h after administration): 433.7 ± 19.5 mg/dL
- Concentration of blood glucose 2 h (Alloxan diabetic mice; 2.0 mg/kg, non-fasting, 6th day, 2 h after administration): 425.1 ± 22.5 mg/dL
- Concentration of blood glucose 4 h (Alloxan diabetic mice; 2.0 mg/kg, non-fasting, 6th day, 4 h after administration): 343.1 ± 17.8 mg/dL
- Concentration of blood glucose 8 h (Alloxan diabetic mice; 2.0 mg/kg, non-fasting, 6th day, 8 h after administration): 522.7 ± 34.0 mg/dL
- Concentration of blood glucose 24 h (Alloxan diabetic mice; 2.0 mg/kg, non-fasting, 6th day, 24 h after administration): 697.7 ± 17.6 ^ mg/dl
- Concentration of blood glucose 0 h (Alloxan diabetic mice; 2.0 mg/kg, non-fasting, 6th day, before administration): 614.3 ± 9.6 ^ mg/dl
- Concentration of blood glucose (random) (Alloxan diabetic mice; 2.0 mg/kg, random blood glucose on the 28th day): 499.3 ± 13.0 mg/dL
- Duration of hypoglycemic effect (Alloxan diabetic mice; 6th day, dapagliflozin 2.0 mg/kg, Compound 2 0.25-2.0 mg/kg): no significant effect after 24 h
